Experimental data reported in ChEMBL document CHEMBL5532639, “Heterocyclic pyrimidine derivatives as promising antibacterial agents” (Eur J Med Chem, 2023).
Values after ≈ are worked out from the molar mass of the structure shown. Blank lines part the entries; values can stand above or below the molecule they belong to.

What was measured:
Escherichia coli [1] = assay: Antibacterial activity against Escherichia coli assessed as inhibition of microbial growth by broth micro-dilution method; format: functional
Pseudomonas aeruginosa [2] = assay: Antibacterial activity against Pseudomonas aeruginosa assessed as inhibition of microbial growth by broth micro-dilution method; format: functional
Staphylococcus aureus [3] = assay: Antibacterial activity against Staphylococcus aureus assessed as inhibition of microbial growth by broth micro-dilution method; format: functional
Streptococcus pyogenes [4] = assay: Antibacterial activity against Streptococcus pyogenes assessed as inhibition of microbial growth by broth micro-dilution method; format: functional
Escherichia coli [5] = assay: Antibacterial activity against Escherichia coli assessed as inhibition of bacterial growth incubated for 4 to 20 hrs by resazurin based microplate reader analysis; format: functional; details: time 4-20 hrs
Staphylococcus aureus [6] = assay: Antibacterial activity against Staphylococcus aureus assessed as inhibition of bacterial growth incubated for 4 to 20 hrs by resazurin based microplate reader analysis; format: functional; details: time 4-20 hrs
Bacillus subtilis [7] = assay: Antibacterial activity against Bacillus subtilis assessed as inhibition of bacterial growth incubated for 4 to 20 hrs by resazurin based microplate reader analysis; format: functional; details: time 4-20 hrs
Pseudomonas aeruginosa [8] = assay: Antibacterial activity against Pseudomonas aeruginosa assessed as inhibition of bacterial growth incubated for 4 to 20 hrs by resazurin based microplate reader analysis; format: functional; details: time 4-20 hrs
Bacillus subtilis [9] = assay: Antibacterial activity against Bacillus subtilis assessed as bacterial growth inhibition by measuring zone of inhibition at 50 ug/ml by agar cup diffusion assay; format: functional; details: read-out: IZ
Salmonella typhimurium = assay: Antibacterial activity against Salmonella typhimurium DT104 assessed as bacterial growth inhibition by measuring zone of inhibition at 50 ug/ml by agar cup diffusion assay; format: functional, Salmonella enterica subsp. enterica serovar Typhimurium; details: Salmonella enterica, read-out: IZ
Staphylococcus aureus [10] = assay: Antibacterial activity against Staphylococcus aureus assessed as bacterial growth inhibition by measuring zone of inhibition at 50 ug/ml by agar cup diffusion assay; format: functional; details: read-out: IZ
Escherichia coli [11] = assay: Antibacterial activity against Escherichia coli assessed as bacterial growth inhibition by measuring zone of inhibition at 50 ug/ml by agar cup diffusion assay; format: functional; details: read-out: IZ
Pseudomonas aeruginosa [12] = assay: Antibacterial activity against Pseudomonas aeruginosa assessed as reduction in bacterial growth by broth microdilution method; format: functional
Staphylococcus aureus [13] = assay: Antibacterial activity against Staphylococcus aureus assessed as reduction in microbial growth by CLSI based broth microdilution method; format: functional
Streptococcus pyogenes [14] = assay: Antibacterial activity against Streptococcus pyogenes assessed as reduction in microbial growth by CLSI based broth microdilution method; format: functional
Escherichia coli [15] = assay: Antibacterial activity against Escherichia coli assessed as bacterial growth inhibition incubated for 18 hrs by CLSI protocol based Mueller-Hinton broth assay; format: functional
Staphylococcus cohnii = assay: Antibacterial activity against Staphylococcus cohnii; format: functional
[16] = tested on: Arcanobacterium haemolyticum; assay: Antibacterial activity against Arcanobacterium haemolyticum; format: functional
Acinetobacter sp. = assay: Antibacterial activity against Acinetobacter sp.; format: functional
[17] = tested on: Staphylococcus epidermidis; assay: Antibacterial activity against Staphylococcus epidermidis assessed as reduction in bacterial growth measured after 24 hrs by broth microdilution method; format: functional
[18] = tested on: Corynebacterium glutamicum; assay: Antibacterial activity against Corynebacterium glutamicum; format: functional
Micrococcus luteus [19] = assay: Antibacterial activity against Micrococcus luteus assessed as reduction in microbial growth; format: functional
Staphylococcus xylosus = assay: Antibacterial activity against Staphylococcus xylosus assessed as reduction in bacterial growth; format: functional
Micrococcus sp. = assay: Antibacterial activity against Micrococcus sp.; format: functional
Corynebacterium sp. = assay: Antibacterial activity against Corynebacterium sp.; format: functional
Micrococcus luteus [20] = assay: Antibacterial activity against Micrococcus luteus assessed as bacterial growth inhibition by paper disc diffusion assay; format: functional
Alcaligenes faecalis = assay: Antibacterial activity against Alcaligenes faecalis; format: functional
[21] = tested on: Staphylococcus haemolyticus; assay: Antibacterial activity against Staphylococcus haemolyticus clinical isolates assessed as bacterial growth inhibition measured after 16 to 24 hrs by broth microdilution assay; format: functional; details: time 16-24 hrs
Staphylococcus hominis = assay: Antibacterial activity against Staphylococcus hominis; format: functional
[22] = tested on: Corynebacterium glutamicum; assay: Antibacterial activity against Corynebacterium glutamicum ATCC 13032 cultured in MHB medium assessed as no bacterial growth incubated at 20 degC for 24 hrs by microdilution susceptibility test; format: functional
Moraxella catarrhalis = assay: Antibacterial activity against Moraxella catarrhalis assessed as reduction in bacterial growth by broth microdilution method; format: functional
Corynebacterium xerosis = assay: Antibacterial activity against Corynebacterium xerosis; format: functional
[23] = tested on: Staphylococcus epidermidis; assay: Antibacterial activity against Staphylococcus epidermidis assessed as reduction in microbial growth after 24 hrs by CLSI based microdilution method; format: functional
Escherichia coli [24] = assay: Antibacterial activity against Escherichia coli assessed as zone of inhibition at 20 mg/ml; format: functional; details: read-out: IZ
Sarcina = assay: Antibacterial activity against Sarcina assessed as zone of inhibition at 20 mg/ml; format: functional; details: read-out: IZ
Serratia marcescens = assay: Antibacterial activity against Serratia marcescens assessed as zone of inhibition at 20 microg/ml; format: functional; details: read-out: IZ
Bacillus subtilis [25] = assay: Antibacterial activity against Bacillus subtilis assessed as zone of inhibition at 20 mg/ml; format: functional; details: read-out: IZ
Staphylococcus aureus [26] = assay: Antibacterial activity against Staphylococcus aureus assessed as zone of inhibition at 20 mg/ml; format: functional; details: read-out: IZ
Escherichia coli [27] = assay: Antibacterial activity against Escherichia coli assessed as reduction in bacterial growth incubated for 16 to 20 hrs by Mueller-Hinton broth based two-fold serial dilution method; format: functional; details: time 16-20 hrs
Streptococcus pyogenes [28] = assay: Antibacterial activity against Streptococcus pyogenes assessed as reduction in microbial growth incubated for 24 hrs by broth micro-dilution method; format: functional
Klebsiella pneumoniae = assay: Antibacterial activity against Klebsiella pneumoniae assessed as reduction in bacterial growth incubated for 16 to 20 hrs by Mueller-Hinton broth based two-fold serial dilution method; format: functional; details: time 16-20 hrs
Pseudomonas aeruginosa [29] = assay: Antibacterial activity against Pseudomonas aeruginosa assessed as reduction in bacterial growth incubated for 24 hrs by broth microdilution method; format: functional
Staphylococcus aureus [30] = assay: Antibacterial activity against Staphylococcus aureus assessed as reduction in bacterial growth incubated for 16 to 20 hrs by Mueller-Hinton broth based two-fold serial dilution method; format: functional; details: time 16-20 hrs

Compound: CCn1cc(C(=O)O)c(=O)c2cc(F)c(N3CCNCC3)cc21 [NORFLOXACIN]
MIC (Escherichia coli [1]): 10 µg/mL
MIC (Pseudomonas aeruginosa [2]): 10 µg/mL
MIC (Staphylococcus aureus [3]): 10 µg/mL
MIC (Streptococcus pyogenes [4]): 10 µg/mL

Compound: CC1(C)S[C@@H]2[C@H](NC(=O)[C@H](N)c3ccc(O)cc3)C(=O)N2[C@H]1C(=O)O [AMOXICILLIN]
MIC (Escherichia coli [5]): 0.5 µg/mL (≈ 1.37 µM)
MIC (Staphylococcus aureus [6]): 0.39 µg/mL (≈ 1.07 µM)
MIC (Bacillus subtilis [7]): 0.39 µg/mL (≈ 1.07 µM)
MIC (Pseudomonas aeruginosa [8]): 1 µg/mL (≈ 2.74 µM)

Compound: Cc1ccc(-c2cc(-c3cc(F)c(Cl)cc3Cl)nc(NC(=O)CSc3nnc(-c4cccnc4N4CCOCC4)o3)n2)cc1
zone of inhibition at 50 µg/mL (Bacillus subtilis [9]): 8 mm
zone of inhibition at 50 µg/mL (Salmonella typhimurium): 10 mm
zone of inhibition at 50 µg/mL (Staphylococcus aureus [10]): 11 mm
zone of inhibition at 50 µg/mL (Escherichia coli [11]): 12 mm

Compound: O=C(CSc1nnc(-c2cccnc2N2CCOCC2)o1)Nc1nc(-c2ccc(Cl)cc2)cc(-c2cc(F)c(Cl)cc2Cl)n1
zone of inhibition at 50 µg/mL (Bacillus subtilis [9]): 10 mm
zone of inhibition at 50 µg/mL (Salmonella typhimurium): 9 mm
zone of inhibition at 50 µg/mL (Staphylococcus aureus [10]): 13 mm
zone of inhibition at 50 µg/mL (Escherichia coli [11]): 10 mm

Compound: O=C(CSc1nnc(-c2cccnc2N2CCOCC2)o1)Nc1nc(-c2ccc(Cl)cc2Cl)cc(-c2cc(F)c(Cl)cc2Cl)n1
zone of inhibition at 50 µg/mL (Bacillus subtilis [9]): 9 mm
zone of inhibition at 50 µg/mL (Salmonella typhimurium): 12 mm
zone of inhibition at 50 µg/mL (Staphylococcus aureus [10]): 13 mm
zone of inhibition at 50 µg/mL (Escherichia coli [11]): 12 mm

Compound: CSc1c(C#N)c(N)nc2c(/N=N/c3ccc(S(=O)(=O)Nc4ncc(C)cn4)cc3)c(=O)[nH]n12
zone of inhibition at 20000 µg/mL (Escherichia coli [24]): 12 mm
zone of inhibition at 20000 µg/mL (Sarcina): 12 mm
zone of inhibition at 20 µg/mL (Serratia marcescens): 15 mm
zone of inhibition at 20000 µg/mL (Bacillus subtilis [25]): 9 mm
zone of inhibition at 20000 µg/mL (Staphylococcus aureus [26]): 9 mm

Compound: CSc1c(C#N)c(N)nc2c(/N=N/c3ccc(S(=O)(=O)Nc4ncccn4)cc3)c(=O)[nH]n12
zone of inhibition at 20000 µg/mL (Escherichia coli [24]): 15 mm
zone of inhibition at 20000 µg/mL (Sarcina): 12 mm
zone of inhibition at 20 µg/mL (Serratia marcescens): 15 mm
zone of inhibition at 20000 µg/mL (Bacillus subtilis [25]): 9 mm
zone of inhibition at 20000 µg/mL (Staphylococcus aureus [26]): 9 mm

Further lines, with some results ahead:

MIC (Escherichia coli [5]): 50 µg/mL (≈ 98.7 µM)
MIC (Staphylococcus aureus [6]): 12.5 µg/mL (≈ 24.7 µM)
MIC (Bacillus subtilis [7]): 12.5 µg/mL (≈ 24.7 µM)
MIC (Pseudomonas aeruginosa [8]): 50 µg/mL (≈ 98.7 µM)
Compound: CCCCCCCc1ccc(C(=O)Nc2nc(C)nc3nc(-c4ccccc4)cc(C(F)(F)F)c23)cc1

MIC (Pseudomonas aeruginosa [12]): 25 µg/mL (≈ 43.4 µM)
MIC (Staphylococcus aureus [13]): 100 µg/mL
MIC (Streptococcus pyogenes [14]): 100 µg/mL
MIC (Escherichia coli [15]): 25 µg/mL (≈ 43.4 µM)
Compound: CCOC(=O)c1ccc(Nc2nc(Nc3ccc(S(=O)(=O)Nc4ncccn4)cc3)nc(N3CCCCC3)n2)cc1

MIC (Pseudomonas aeruginosa [12]): 100 µg/mL (≈ 186 µM)
MIC (Staphylococcus aureus [13]): 200 µg/mL
MIC (Streptococcus pyogenes [14]): 100 µg/mL
MIC (Escherichia coli [15]): 25 µg/mL (≈ 46.5 µM)
Compound: O=S(=O)(Nc1ncccn1)c1ccc(Nc2nc(Nc3ccc(Cl)cc3)nc(N3CCCCC3)n2)cc1

MIC (Staphylococcus cohnii): 100 µg/mL (≈ 223 µM)
MIC (Acinetobacter sp.): 50 µg/mL (≈ 112 µM)
MIC [17]: 100 µg/mL (≈ 223 µM)
MIC [18]: 100 µg/mL (≈ 223 µM)
MIC (Micrococcus luteus [19]): 100 µg/mL
MIC (Staphylococcus xylosus): 100 µg/mL (≈ 223 µM)
MIC (Micrococcus sp.): 100 µg/mL (≈ 223 µM)
MIC (Corynebacterium sp.): 100 µg/mL (≈ 223 µM)
MIC (Micrococcus luteus [20]): 100 µg/mL (≈ 223 µM)
MIC (Alcaligenes faecalis): > 500 µg/mL
MIC (Staphylococcus hominis): 100 µg/mL (≈ 223 µM)
MIC [22]: 50 µg/mL (≈ 112 µM)
MIC (Moraxella catarrhalis): 100 µg/mL (≈ 223 µM)
MIC (Corynebacterium xerosis): 30 µg/mL (≈ 67 µM)
MIC [23]: 100 µg/mL
Compound: Clc1ccc(C(Cc2ccccc2)c2c(Cl)nc(N3CCNCC3)nc2Cl)cc1 (stereo not given)
MIC [16]: 10 µg/mL (≈ 22.3 µM)
MIC [21]: 100 µg/mL (≈ 223 µM)

MIC (Escherichia coli [27]): 12.5 µg/mL (≈ 23.2 µM)
MIC (Streptococcus pyogenes [28]): 12.5 µg/mL
MIC (Klebsiella pneumoniae): 12.5 µg/mL (≈ 23.2 µM)
MIC (Pseudomonas aeruginosa [29]): 25 µg/mL (≈ 46.4 µM)
MIC (Staphylococcus aureus [30]): 25 µg/mL (≈ 46.4 µM)
Compound: Nc1cccc(/C=N/Nc2nc3nc(-c4ccc(Cl)cc4)c(-c4nc5ccccc5s4)c(N)c3c(=O)[nH]2)c1

MIC (Staphylococcus cohnii): 75 µg/mL (≈ 156 µM)
MIC (Acinetobacter sp.): 30 µg/mL (≈ 62.2 µM)
MIC [17]: 75 µg/mL (≈ 156 µM)
MIC [18]: 50 µg/mL (≈ 104 µM)
MIC (Micrococcus luteus [19]): 100 µg/mL
MIC (Staphylococcus xylosus): 100 µg/mL (≈ 207 µM)
MIC (Micrococcus sp.): 75 µg/mL (≈ 156 µM)
MIC (Corynebacterium sp.): 75 µg/mL (≈ 156 µM)
MIC (Micrococcus luteus [20]): 75 µg/mL (≈ 156 µM)
MIC (Alcaligenes faecalis): > 500 µg/mL
MIC (Staphylococcus hominis): 75 µg/mL (≈ 156 µM)
MIC [22]: 50 µg/mL (≈ 104 µM)
MIC (Moraxella catarrhalis): 50 µg/mL (≈ 104 µM)
MIC (Corynebacterium xerosis): 30 µg/mL (≈ 62.2 µM)
MIC [23]: 75 µg/mL
Compound: Clc1ccc(C(Cc2cccc(Cl)c2)c2c(Cl)nc(N3CCNCC3)nc2Cl)cc1 (stereo not given)
MIC [16]: 10 µg/mL (≈ 20.7 µM)
MIC [21]: 50 µg/mL (≈ 104 µM)

MIC (Escherichia coli [1]): 62.5 µg/mL
MIC (Pseudomonas aeruginosa [2]): 50 µg/mL
MIC (Staphylococcus aureus [3]): 100 µg/mL
MIC (Streptococcus pyogenes [4]): 100 µg/mL
Compound: COc1ccc(-c2cc(-c3ccc(Oc4ccccc4)cc3)nc(SCC(=O)Nc3nc4ccc(S(=O)(=O)O)cc4s3)n2)cc1
